# Experimental data published in ChEMBL document CHEMBL1123299, “New antiarrhythmic agents. 2,2,5,5-Tetramethyl-3-pyrroline-3-carboxamides and 2,2,5,5-tetramethylpyrrolidine-3-carboxamindes” (J Med Chem, 1986).
# Experiments:
# Rattus norvegicus [1] = experiment: Incidence of arrhythmias in rats after a intravenal administration at 4 mg/kg, expressed as no. of positive cases out of no. of tested cases (10); type: functional
# [2] = Acute toxicity determined after intravenal administration in mice; type: organism-based; details: mouse, in vivo, iv
# Rattus norvegicus [3] = species on record: Rattus norvegicus; experiment: Relative potency with reference to quinidine; type: functional
Compound,No. of positive cases (Rattus norvegicus [1]),LD50 [2] [mg/kg],Relative potency (Rattus norvegicus [3])
CC1(C)C=C(C(=O)NCCCNC(=O)C2CC=CCC2C(=O)O)C(C)(C)N1 (stereo unspecified),0,344,
CC1(C)C=C(C(=O)NCCN2C(=O)c3ccccc3C2=O)C(C)(C)N1,7,,1.5
C/C=C/c1ccc(OC(C)C(=O)NCCCNC(=O)C2=CC(C)(C)NC2(C)C)c(OC)c1 (stereo unspecified),7,14,4.4
CC1(C)C=C(C(=O)NCCN2C(=O)C3CCCCC3C2=O)C(C)(C)N1 (stereo unspecified),0,128,
CC1(C)C=C(C(=O)NCCCN2C(=O)C3CC=CCC3C2=O)C(C)(C)N1 (stereo unspecified),2,,
CC1(C)C=C(C(=O)NCCCNC(=O)C(C)(C)Oc2ccc(Cl)cc2)C(C)(C)N1,0,46,
CCc1nc2ccccc2c(=O)n1CCCNC(=O)C1CC(C)(C)NC1(C)C (stereo unspecified),10,,4.4
COc1cc(C(=O)NCCCNC(=O)C2=CC(C)(C)NC2(C)C)cc(OC)c1OC,5,,0.97
CC1(C)C=C(C(=O)NCCNCc2cccs2)C(C)(C)N1,3,123,
CC1(C)C=C(C(=O)NCCNC(=O)c2ccccn2)C(C)(C)N1,2,88,
CC1(C)C=C(C(=O)NCCCNC(=O)C2CCCCC2C(=O)O)C(C)(C)N1 (stereo unspecified),0,753,
CC(=O)Nc1ccc(CNCCCNC(=O)C2=CC(C)(C)NC2(C)C)cc1,2,23,
CC1(C)C=C(C(=O)NCCNC(=O)C(C)(C)Oc2ccc(Cl)cc2)C(C)(C)N1,0,47,
CC1(C)C=C(C(=O)NCc2ccccc2)C(C)(C)N1,3,34,
CN(Cc1ccccc1)C(=O)C1=CC(C)(C)NC1(C)C,1,51,
CC1(C)C=C(C(=O)NCCNC(=O)Cc2cccs2)C(C)(C)N1,2,86,
COc1ccc(CNCCNC(=O)C2=CC(C)(C)NC2(C)C)cc1OC,2,61,
CC1(C)CC(C(=O)NCCCNCc2cccs2)C(C)(C)N1 (stereo unspecified),10,,2.8
CC1(C)C=C(C(=O)NCCNC(=O)C2CCCCC2C(=O)O)C(C)(C)N1 (stereo unspecified),0,1130,

Compound,No. of positive cases (Rattus norvegicus [1]),LD50 [2] [mg/kg],Relative potency (Rattus norvegicus [3])
CC1(C)C=C(C(=O)NCCCCNC(=O)c2cccs2)C(C)(C)N1,6,37,
COc1cc(CNCCNC(=O)C2=CC(C)(C)NC2(C)C)cc(OC)c1OC,2,56,
CC1(C)C=C(C(=O)NCCCNCc2ccsc2)C(C)(C)N1,9,,2.2
CC1(C)C=C(C(=O)NCCNC(=O)COc2ccc(Cl)cc2Cl)C(C)(C)N1,4,37,
CC1(C)C=C(C(=O)NCCCNC(=O)c2cccs2)C(C)(C)N1,4,48,
CC(=O)Nc1ccc(CNCCNC(=O)C2=CC(C)(C)NC2(C)C)cc1,2,25,
Cc1nc2ccccc2c(=O)n1CCCNC(=O)C1=CC(C)(C)NC1(C)C,10,,2.6
CC1(C)C=C(C(=O)NC(c2ccccc2)c2ccccc2)C(C)(C)N1,5,63,
CC1(C)C=C(C(=O)NCCNC(=O)C2CC=CCC2C(=O)O)C(C)(C)N1 (stereo unspecified),0,1510,
CC1(C)C=C(C(=O)NCCNC(=O)C(O)c2ccccc2)C(C)(C)N1 (stereo unspecified),0,85,
CC1(C)C=C(C(=O)NCCCNCc2ccccc2)C(C)(C)N1,9,,3.3
CC1(C)C=C(C(=O)NCCCNCc2ccccn2)C(C)(C)N1,0,102,
CCc1nc2ccccc2c(=O)n1CCNC(=O)C1=CC(C)(C)NC1(C)C,10,,1.1
COc1ccc(CCNC(=O)C2=CC(C)(C)NC2(C)C)cc1OC,0,123,
CC1(C)C=C(C(=O)NCCCNCc2cccc(O)c2)C(C)(C)N1,4,17,
Cc1nc2ccccc2c(=O)n1CC(O)CNC(=O)C1=CC(C)(C)NC1(C)C (stereo unspecified),4,73,
CC1(C)C=C(C(=O)NCCCNC(=O)Cc2cccs2)C(C)(C)N1,8,,3.8
CC1(C)C=C(C(=O)NCCNC(=O)c2ccccc2C(=O)O)C(C)(C)N1,0,357,
C=CCc1ccc(OCC(=O)NCCCNC(=O)C2CC(C)(C)NC2(C)C)c(OC)c1 (stereo unspecified),0,38,
